Results from patent publication US20240366625A1, “COMPOSITIONS CONTAINING AND THERAPIES USING BEMPEDOIC ACID AND TOLVAPTAN” (Esperion Therapeutics, Inc., priority 2021, published 2024).

What was measured:
[1] = tested on: proximal tubule (PT)-derived Pkd1−/− kidney epithelial cells; assay: Cyst growth of PT-derived Pkd1−/− kidney epithelial cells in 3D cultures (Matrigel); format: cell-based, mouse; conditions: 10 μM forskolin+100 μM IBMX, vs vehicle (DMSO)
Description: The example describes cell growth inhibition studies in 3D cultures of kidney epithelial cells using either of ACLY inhibitors bempedoic acid or SB-204990. […] Cells were grown in Matrigel 12 days and treated with 10 μM forskolin+100 μM IBMX for 11 days, and then treated with either vehicle (DMSO; CON), 500 μM metformin, 100 μM ETC-1002 (bempedoic acid) or 30 μM SB-204990 either alone or in combination as shown for the last 3 days (FIG. 2A). […] Error bars indicate 95% confidence interval (CI) (*P<0.05, **P<0.01, ***P<0.001 for the indicated comparisons by one-way ANOVA and Tukey's multiple comparison test) (FIG. 2B).

[2] = tested on: inner medullary collecting duct (IMCD)-derived Pkd1−/− kidney epithelial cells; assay: Cyst growth of IMCD-derived Pkd1−/− kidney epithelial cells in 3D cultures (Matrigel); format: cell-based, mouse; conditions: 10 μM forskolin+100 μM IBMX
Description: ETC-1002 inhibited cyst growth of inner medullary collecting duct (IMCD)-derived Pkd1−/− kidney epithelial cells in 3D cultures. Cells were grown in Matrigel for 6 days and treated with 10 μM forskolin+100 μM IBMX±500 μM metformin and/or 100 μM of ETC-1002 (bempedoic acid) for the last 3 days alone or in combination as shown (FIG. 2C). […] Error bars indicate 95% CI (*P<0.05, **P<0.01, ***P<0.001 for the indicated comparisons by one-way ANOVA and Tukey's multiple comparison test) (FIG. 2D).

[3] = tested on: early onset, rapidly developing ADPKD mouse model Pkd1fl/fl;Pax8-rtTA;Tet-O-Cre; assay: Early onset, rapidly developing ADPKD mouse model: kidney size, kidney weight to body weight, BUN; format: in vivo; conditions: for BUN: vehicle 107±14; for kidney size (H&E stains of kidney sections) compared to vehicle control: oral gavage daily P12-P21, P22
Description: The example describes characterization of the early onset, rapidly developing ADPKD mouse model Pkd1fl/fl;Pax8-rtTA;Tet-O-Cre homozygous in the C57BL/6 background.
(§1) Doxycycline was administered intraperitoneally (50 mg/kg/day) on postnatal days 10 and 11 (P10 and P11) to induce Pkd1 deletion and rapidly progressive PKD in the Cre+ mice. Mice were treated with the various drugs and combinations or vehicle by oral gavage daily from P12-P21 and were then sacrificed at P22 of age to harvest kidneys for histology, weight measurements and blood urea nitrogen (BUN) measurements. Treatments were vehicle, tolvaptan 30 mg/kg/d, tolvaptan 100 mg/kg/d, bempedoic acid 30 mg/kg/d, tolvaptan 30 mg/kg/d+bempedoic acid 30 mg/kg/d, and tolvaptan 100 mg/kg/d+bempedoic acid 30 mg/kg/d; also included was an uninduced, untreated group without PKD. Each treatment group consisted of 3-6 mice.

phosphorylated ACLY = assay: Immunoblot of kidney lysates, early onset ADPKD mice: pACLY; format: in vivo, mouse; conditions: bempedoic acid 30 mg/kg/d alone or in combination with tolvaptan; P22
Description: as §1
(§2) At the end of the study, kidney sample lysates were prepared in buffer and separated using SDS-PAGE. Separated proteins were then electrophoretically transferred to membranes. Nonspecific binding was blocked, and membranes were probed with antibodies against phosphorylated (Thr172)-AMPK, phosphorylated P70S6K, phosphorylated ERK, phosphorylated ACLY, total KIM-1, and total neutrophil gelatinase-associated lipocalin (NGAL). Membranes were incubated with appropriate detection antibodies and relative signal intensity determined. Protein levels were normalized to total protein levels. […] These effects of bempedoic acid occurred both alone and in combination with tolvaptan therapy.

[4] = tested on: phosphorylated (Thr172)-AMPK; assay: Immunoblot of kidney lysates, early onset ADPKD mice: pAMPK; format: in vivo, mouse; conditions: bempedoic acid 30 mg/kg/d alone or in combination with tolvaptan; P22
Description: as §1, §2

phosphorylated P70S6K = assay: Immunoblot of kidney lysates, early onset ADPKD mice: pP70S6K (mTOR pathway); format: in vivo, mouse; conditions: bempedoic acid 30 mg/kg/d alone or in combination with tolvaptan; P22
Description: as §1, §2

phosphorylated ERK = assay: Immunoblot of kidney lysates, early onset ADPKD mice: pERK; format: in vivo, mouse; conditions: bempedoic acid 30 mg/kg/d alone or in combination with tolvaptan; P22
Description: as §1, §2

[5] = tested on: total neutrophil gelatinase-associated lipocalin (NGAL); assay: Immunoblot of kidney lysates, early onset ADPKD mice: NGAL; format: in vivo, mouse; conditions: P22
Description: as §1, §2

total KIM-1 = assay: Immunoblot of kidney lysates, early onset ADPKD mice: KIM-1; format: in vivo, mouse; conditions: bempedoic acid 30 mg/kg/d; P22
Description: as §1, §2

pACLY = assay: Immunoblot of liver lysates, early onset ADPKD mice: pACLY; format: in vivo, mouse; conditions: bempedoic acid 30 mg/kg/d alone or in combination with tolvaptan 100 mg/kg/d; P22
Description: as §1
(§3) Liver sample lysates were prepared in buffer and separated using SDS-PAGE. Separated proteins were then electrophoretically transferred to membranes. Nonspecific binding was blocked and membranes were probed with antibodies against pACLY, pThr172AMPKα, PGC1alpha, FATP2, pACC, and cleaved Cas3. Membranes were incubated with appropriate detection antibodies and relative signal intensity determined. Target protein levels were normalized to total protein levels.

FATP2 = assay: Immunoblot of liver lysates, early onset ADPKD mice: FATP2; format: in vivo, mouse; conditions: bempedoic acid 30 mg/kg/d alone or in combination with tolvaptan 100 mg/kg/d; P22
Description: as §1, §3

pThr172AMPKα = assay: Immunoblot of liver lysates, early onset ADPKD mice: pAMPK; format: in vivo, mouse; conditions: bempedoic acid 30 mg/kg/d; P22
Description: as §1, §3

pACC = assay: Immunoblot of liver lysates, early onset ADPKD mice: pACC; format: in vivo, mouse; conditions: bempedoic acid 30 mg/kg/d; P22
Description: as §1, §3

[6] = tested on: late onset, slowly developing ADPKD mouse model Pkd1fl/fl;Pax8-rtTA;Tet-On-Cre; assay: Late onset, slowly developing ADPKD mouse model: kidney weight to body weight; format: in vivo; conditions: bempedoic acid 30 mg/kg/d mixed with food from P30
Description: The example describes characterization of the late onset, slowly developing ADPKD mouse model Pkd1fl/fl;Pax8-rtTA;Tet-On-Cre when treated with bempedoic acid.
Doxycycline was administered intraperitoneally (50 mg/kg/day) on postnatal days 27-29 (P27-P29) and again on P43 and P57 to induce later Pkd1 knockout and slowly progressive PKD in the Cre+ mice. Mice were then sacrificed at […], P60, and P120 for measurements of total kidney weight to body weight ratios.

CC(C)(CCCCCC(O)CCCCCC(C)(C)C(=O)O)C(=O)O [Bempedoic acid]
cyst area relative to control ([1]; 100 μM ETC-1002 for the last 3 days): significantly reduced cyst area | cyst area relative to control ([2]; 100 μM ETC-1002 alone for the last 3 days): significantly reduced cyst area | total kidney weight to body weight ratio ([3]; bempedoic acid 30 mg/kg/d oral gavage P12-P21, P22, vehicle 11.9±1.2%): 6.9±0.4% | BUN ([3]; bempedoic acid 30 mg/kg/d oral gavage P12-P21, P22): 59 ± 13 mg/dL | kidney size (H&E stains of kidney sections) compared to vehicle control [3]: marked reduction in kidney size | ACLY activity (pACLY relative to total protein), kidney lysate (phosphorylated ACLY): reduced ACLY | AMPK activity (pThr172 relative to total protein), kidney lysate [4]: stimulated AMPK | mTOR signaling pathway (pP70S6K relative to total protein), kidney lysate (phosphorylated P70S6K): inhibited | ERK signaling pathway (pERK relative to total protein), kidney lysate (phosphorylated ERK): inhibited | NGAL signaling pathway (NGAL relative to total protein), kidney lysate ([5]; bempedoic acid 30 mg/kg/d alone or in combination with tolvaptan): inhibited | reduction of NGAL expression compared with reduction of KIM-1 expression, kidney lysate ([5]; bempedoic acid 30 mg/kg/d): to a lesser extent | reduction of KIM-1 expression (marker of kidney injury), kidney lysate (total KIM-1): > 70% | pACLY (activation marker) relative to total protein, liver lysate (pACLY): inhibited pACLY | FATP2 expression relative to total protein, liver lysate (FATP2): increased FATP2 expression | AMPK activity (pThr172 relative to total protein), liver lysate (pThr172AMPKα): increased AMPK activity | phosphorylation of AMPK target ACC in liver tissue (pACC): promoted phosphorylation | total kidney weight to body weight ratio ([6]; P60, male mice): significantly reduced total kidney weight to body weight ratio | total kidney weight to body weight ratio ([6]; P120, male and female mice): a trend that was also observed

O=C(O)C[C@@]1(O)C[C@@H](CCCCCCc2ccc(Cl)cc2Cl)OC1=O [SB-204990]
cyst area relative to control ([1]; 30 μM SB-204990 for the last 3 days): significantly reduced cyst area

CN(C)C(=N)N=C(N)N [metformin]
cyst area relative to control ([1]; 500 μM metformin for the last 3 days): significantly reduced cyst area | cyst area relative to control ([2]; 500 μM metformin alone for the last 3 days): significantly reduced cyst area

Cc1ccccc1C(=O)Nc1ccc(C(=O)N2CCCC(O)c3cc(Cl)ccc32)c(C)c1 (centres unmarked) [tolvaptan, Tolvaptan]
kidney size (H&E stains of kidney sections) compared to vehicle control [3]: marked reduction in kidney size | BUN ([3]; tolvaptan 30 mg/kg/d oral gavage P12-P21, P22): 68 ± 8 mg/dL | total kidney weight to body weight ratio ([3]; tolvaptan 30 mg/kg/d oral gavage P12-P21, P22, vs vehicle): reduced total kidney weight to body weight ratio | total kidney weight to body weight ratio ([3]; tolvaptan 100 mg/kg/d oral gavage P12-P21, P22, vehicle 11.9±1.2%): 7.8±1.0% | BUN ([3]; tolvaptan 100 mg/kg/d oral gavage P12-P21, P22): 35 ± 7 mg/dL
